These results are taken from US4008223A, “6-Aza-3H-1,4-benzodiazepines” (Deutsche Gold- und Silber-Scheideanstalt vormals Roessler, priority 1971, dated 1977).

A short description of data set [1]: rotating rod test (ataxic effect). Type of data set: in vivo, mice. To be noted: mouse, rotating rod test; mice; oral; 50% of animals show a typical ataxic effect; read-out: ED50, ataxic effect (rotating rod). The source says:
(§1) Furthermore, there is given in this table the ataxic activity. The ratio of ataxic activity to the anxiolytic activity is of the greatest significance in using a material as an anxiolytic agent. This quotient should be as large as possible since an ataxic activity is undesirable. Ataxic activity means that the coordination of the muscular movements is disturbed -- ataxic disturbance of the muscular coordination. This means at the dosage at which a marked anxiolytic activity is present there should not be found a noteworthy ataxice. The toxicity, in case the data exists above the ataxic activity, is no longer important since the amount which is toxic is always considerably higher than the amount at which 50% (ED50) of the animals have an ataxic effect. The ataxic effect was measured on mice on the pattern of the rotating rod.
(§2) In the rotating rod test the animals (mice) were firest placed on a rotating rod 15 minutes after the application of the test material and then were placed on the rotating rod every 15 minutes and the animals which fell down within 2 minutes measured positive. From the number of animals which fell down expressed in per cent there were drawn time-effect curves and the areas defined by it entered as percent effect in a probability network, the dosage-effect-line prepared and the ED50 read off. The ED50 mg/kg body weight of the mouse again specifies the dosage at which 50% of all the animals show a typical ataxic effect.

For data set [2], the system named is mice. As to the kind of experiment: rotating rod test (ataxic effect). It counts as in vivo. The note with it: quotient of ED50 ataxia / ED50 Cardiazol shock; should be as large as possible.
Text: as §1, §2

Data set [3] concerns mice. As to the kind of experiment: Cardiazol shock (anticonvulsive / anxiolytic effect). Type of data set: in vivo. To be noted: Mus musculus, 1 h, oral, one hour before 150 mg/kg s.c. Cardiazol, 50% of animals with marked anticonvulsive effect. The source says: The compounds of the present invention have a pronounced anxiolytic activity, i.e., they relieve or reduce anxiety. Such activity naturally cannot be measured directly in animals. […] A method for testing whether a compound has anticonvulsive properties and also therewith is anxiolytically active is the Cardiazol-Shock Method.
In order to compare the therapeutic value of the compounds of the present invention with the most closely related compounds in Littell U.S. Pat. No. 3,314,941 and Reeder U.S. Pat. No. 3,371,085 tests were conducted comparing the properties of the compounds of the present application and the Littell and Reeder patents in regard to anxiolytic effect (tested by Cardiazol-Shock).
The Cardiazol shock procedure was carried out according to the method of F.M. Berger et al in J. Pharmacol. Exper. Therap. Vol. 116, pages 337-342 (1956). With mice the subcutaneous injection of 150 mg/kg of Cardiazol first results in short lasting spasms, then long lasting and strong spasms and finally results in the death of all of the animals within 10 to 15 minutes. By the oral administration of the anticonvulsive acting test materials at various dosages one hour prior to the administration of the Cardiazol, the 100% lethal effect of the Cardiazol is reduced depending on the dosage. From the percentage of surviving animals in the individual test groups there was plotted graphically the dosage-effect line and from this the ED50 value was ascertained.

For data set [4] the following is noted: literature; cited from earlier work.
The conditions of data set [5]: First Int. Pharmacological Meeting, Vol. 7, pages 311 et seq.; cited from earlier work.
The conditions of data set [6]: on introduction of p-chlorine and alpha-methyl; literature; cited from earlier work.

Molecules are shown by their SMILES.

As for `CC1N=C(c2ccccc2)c2nc(Cl)ccc2NC1=O` (racemic) [Example 4, 3-Methyl-5-phenyl-6-aza-7-chloro-1,2-dihydro-3H-1,4-benzodiazepinone-(2)], in data set [1], the TD50 turned out to be 78 mg/kg. Besides, in the data set on mice [2], the “ratio of ataxic activity to the anxiolytic activity” value (“ratio of ataxic activity” for short) is 4.3. In addition, the 50% effect level with mice [3] (ED50) was put at a dose of 18 mg/kg.
As for `CN(C)CCCN1c2ccccc2Sc2ccc(Cl)cc21` [Chlorpromazine], the antihistamine activity result in data set [4] is listed as “practically no antihistamine activity”.
Turning to `O=C1CN=C(c2ccccc2)c2nc(Cl)ccc2N1` [Example 1, 5-Phenyl-6-aza-7-chloro-1,2-dihydro-3H-1,4-benzodiazepinone-(2)], the TD50 in data set [1] stood at 72 mg/kg. Moreover, in the data set on mice [2], the “ratio of ataxic activity” value amounted to 11.4. The ED50 – broadly, the dose at which the effect has come halfway, by size or by number of responders – in the data set on mice [3] came out at 6.3 mg/kg.
Turning to `O=C1CN=C(c2ccccc2Cl)c2nc(Cl)ccc2N1` [Example 6, 5-(o-Chlorophenyl)-6-aza-7-chloro-1,2-dihydro-3H-1,4-benzodiazepinone-(2)], the TD50 in data set [1] came out at 45 mg/kg. For the same molecule, the “ratio of ataxic activity” value in the data set with mice [2] is on record as 16.5. In the data set on mice [3], the ED50 worked out at 2.72 mg/kg.
For the molecule `CN1C(=O)CN=C(c2ccccc2F)c2nc(Cl)ccc21` [Example 9, 1-Methyl-5-(o-fluorophenyl)-6-aza-7-chloro-1,2-dihydro-3H-1,4-benzodiazepinone-(2)], the TD50 in data set [1] is 9.7 mg/kg. In addition, the “ratio of ataxic activity” value in the data set on mice [2] turned out to be 6.1. The molecule further showed an ED50 in the data set with mice [3] of 1.58 mg/kg.
Turning to `O=C1CN=C(c2ccccc2F)c2nc(Cl)ccc2N1` [Example 10, 5-(-Fluorophenyl)-6-aza-7-chloro-1,2-dihydro-3H-1,4-benzodiazepinone-(2)], in data set [1], the TD50 stood at 17 mg/kg. In the data set with mice [2], the “ratio of ataxic activity” value worked out at 10.4. Besides, the ED50 in the data set with mice [3] is 1.63 mg/kg.
The matching figures for `O=C(O)CCC(=O)OC1N=C(c2ccccc2Cl)c2nc(Cl)ccc2NC1=O` (stereo not shown) [Example 12]: 100 mg/kg, 13.5 and 7.4 mg/kg.
The like results for `O=C1Nc2ccc(Cl)nc2C(c2ccccc2Cl)=NC1O` (stereo not shown) [Example 13, 3-Hydroxy-5-o-chlorophenyl-6-aza-7-chloro-1,2-dihydro-3H-1,4-benzodiazepinone-(2)] were, in that order, 36 mg/kg, 15.0 and 2.4 mg/kg.
Turning to `CC(=O)OC1N=C(c2ccccc2Cl)c2nc(Cl)ccc2N(C(C)=O)C1=O` (stereo not shown) [Example 15, 1-Acetyl-3-acetoxy-5-(o-chlorophenyl)-6-aza-7-chloro-1,2-dihydro-3H-1,4-benzodiazepinone-(2)], the TD50 in data set [1] was determined as 100 mg/kg. Further, the “ratio of ataxic activity” value with mice [2] worked out at 6.7. Moreover, the 50% effect level in the data set with mice [3] (ED50) was put at a dose of 15 mg/kg.
The matching figures for `CN1C(=O)CN=C(c2ccccc2)c2nc(Cl)ccc21` [Example 17, 1-Methyl-5-phenyl-6-aza-7-chloro-1,2-dihydro-3H-1,4-benzodiazepinone-(2)]: 26 mg/kg, 6.2 and 4.2 mg/kg.
`C=CCN1C(=O)CN=C(c2ccccc2)c2nc(Cl)ccc21` [Example 18, 1-Allyl-5-phenyl-6-aza-7-chloro-1,2-dihydro-3H-1,4-benzodiazepinone-(2)]: in data set [1], the TD50 turned out to be 90 mg/kg. Besides, the “ratio of ataxic activity” value in the data set on mice [2] is given as 8.2. Also, in the data set with mice [3], the ED50 was 11 mg/kg.
Turning to `O=C1CN=C(c2ccccc2)c2nc(Cl)ccc2N1CC1CC1` [Example 19], the TD50 in data set [1] came to 75 mg/kg. In the data set on mice [2], the “ratio of ataxic activity” value is reported as 7.7. The 50% effect level with mice [3] (ED50) was put at a dose of 9.75 mg/kg.
The matching figures for `CN1C(=O)CN=C(c2ccccc2Cl)c2nc(Cl)ccc21` [Example 21, 1-Methyl-5-(o-chlorophenyl)-6-aza-7-chloro-1,2-dihydro-3H-1,4-benzodiazepinone-(2)]: 10 mg/kg, 10.2 and 0.98 mg/kg.
On to `CN1C(=S)CN=C(c2ccccc2Cl)c2nc(Cl)ccc21` [Example 24, 1-Methyl-5-(o-chlorophenyl)-6-aza-7-chloro-1,2-dihydro-3H-1,4-benzodiazepinthione-(2)], for which, in data set [1], the TD50 was 39 mg/kg. Also, the “ratio of ataxic activity” value in the data set with mice [2] turned out to be 12.5. The molecule further yielded an ED50 with mice [3] of 3.3 mg/kg.
`CC(NN)c1ccccc1` (stereo not drawn) [alpha phenyl-ethyl hydrazine]: the stimulating activity entry in data set [5] is listed as “strong stimulating activity”.
On to `CN(C)CCOC(C)(c1ccccc1)c1ccc(Cl)cc1` (stereo not shown) [chlorphenoxamine], for which the antihistamine activity result in data set [4] is “reduced”. In addition, in data set [6], the anticholinergic activity entry is “strengthening”.
